Source: ChEMBL document CHEMBL1914384, “Design, synthesis, and structure-activity relationship studies of highly potent novel benzoxazinyl-oxazolidinone antibacterial agents” (J Med Chem, 2011)
In brackets after ≈: the same amount, converted by molar mass.

Legend:
Assay type in all cases: functional
Staphylococcus aureus [1] = assay: Antibacterial activity against Staphylococcus aureus ATCC 29213 after 16 hrs by agar dilution method; conditions: ATCC 29213, 16 h
Staphylococcus aureus [2] = assay: Antibacterial activity against methicillin-resistant Staphylococcus aureus after 16 hrs by agar dilution method
[3] = test system: Staphylococcus epidermidis; assay: Antibacterial activity against methicillin-resistant Staphylococcus epidermidis after 16 hrs by agar dilution method
Streptococcus pneumoniae = assay: Antibacterial activity against penicillin-resistant Streptococcus pneumoniae after 16 hrs by agar dilution method
Enterococcus faecalis [4] = assay: Antibacterial activity against Enterococcus faecalis after 16 hrs by agar dilution method
Staphylococcus aureus [5] = assay: Antibacterial activity against linezolid-resistant Staphylococcus aureus after 16 hrs by agar dilution method
[6] = test system: Staphylococcus epidermidis; assay: Antibacterial activity against linezolid-resistant Staphylococcus epidermidis after 16 hrs by agar dilution method
Enterococcus faecalis [7] = assay: Antibacterial activity against linezolid-resistant Enterococcus faecalis after 16 hrs by agar dilution method
Enterococcus faecium = assay: Antibacterial activity against linezolid-resistant Enterococcus faecium after 16 hrs by agar dilution method

| Compound | MIC (Staphylococcus aureus [1]) [µg/mL] | MIC (Staphylococcus aureus [2]) [µg/mL] | MIC [3] [µg/mL] | MIC (Streptococcus pneumoniae) [µg/mL] | MIC (Enterococcus faecalis [4]) [µg/mL] | MIC (Staphylococcus aureus [5]) [µg/mL] | MIC [6] [µg/mL] | MIC (Enterococcus faecalis [7]) [µg/mL] | MIC (Enterococcus faecium) [µg/mL] |
| --- | --- | --- | --- | --- | --- | --- | --- | --- | --- |
| CC(=O)NC[C@@H]1OC(=O)N2c3ccc(-c4ccc(C#N)nc4)cc3OC[C@H]12 | > 16 | > 16 | > 16 | > 16 | > 16 |  |  |  |  |
| CC(=O)NC[C@@H]1OC(=O)N2c3ccc(-c4cncc(C(C)=O)c4)cc3OC[C@@H]12 | 1 (≈ 2.62 µM) | 1 (≈ 2.62 µM) | 0.5 (≈ 1.31 µM) | 1 (≈ 2.62 µM) | 1 (≈ 2.62 µM) |  |  |  |  |
| CC(=O)NC[C@@H]1OC(=O)N2c3ccc(-c4ccc(-n5ccnc5)nc4)cc3OC[C@@H]12 | 0.5 (≈ 1.23 µM) | 0.5 (≈ 1.23 µM) | 0.5 (≈ 1.23 µM) | 0.5 (≈ 1.23 µM) | 1 (≈ 2.47 µM) |  |  |  |  |
| CC(=O)NC[C@@H]1OC(=O)N2c3ccc(-c4cnc(N)nc4)cc3OC[C@@H]12 | 1 (≈ 2.81 µM) | 1 (≈ 2.81 µM) | 1 (≈ 2.81 µM) | 1 (≈ 2.81 µM) | 2 (≈ 5.63 µM) |  |  |  |  |
| CC(=O)NC[C@@H]1OC(=O)N2c3cc(F)c(-c4ccc(C#N)nc4)cc3OC[C@@H]12 | 2 (≈ 5.23 µM) | 1 (≈ 2.62 µM) | 1 (≈ 2.62 µM) | 2 (≈ 5.23 µM) | 2 (≈ 5.23 µM) |  |  |  |  |
| CC(=O)NC[C@@H]1OC(=O)N2c3ccc(-c4cccc(N)c4)cc3OC[C@@H]12 | 0.5 (≈ 1.41 µM) | 1 (≈ 2.83 µM) | 1 (≈ 2.83 µM) | 0.5 (≈ 1.41 µM) | 1 (≈ 2.83 µM) |  |  |  |  |
| CC(=O)NC[C@@H]1OC(=O)N2c3ccc(-c4ccc(CC#N)nc4)cc3OC[C@@H]12 | 0.25 (≈ 0.661 µM) | 0.25 (≈ 0.661 µM) | 0.25 (≈ 0.661 µM) | 0.5 (≈ 1.32 µM) | 0.5 (≈ 1.32 µM) |  |  |  |  |
| CC(=O)NC[C@@H]1OC(=O)N2c3ccc(N4CCN(Cc5cccnc5)CC4)cc3OC[C@@H]12 | 16 (≈ 36.6 µM) | > 16 | > 16 | > 16 | > 16 |  |  |  |  |
| CC(=O)NC[C@@H]1OC(=O)N2c3ccc(N4CCN(Cc5cccc([N+](=O)[O-])c5)CC4)cc3OC[C@@H]12 | > 16 | > 16 | > 16 | > 16 | > 16 |  |  |  |  |
| CC(=O)NC[C@@H]1OC(=O)N2c3ccc(-c4ccc(C5(C#N)CC5)nc4)cc3OC[C@@H]12 | 0.5 (≈ 1.24 µM) | 0.5 (≈ 1.24 µM) | 0.5 (≈ 1.24 µM) | 0.5 (≈ 1.24 µM) | 0.5 (≈ 1.24 µM) | 8 (≈ 19.8 µM) | 1 (≈ 2.47 µM) | 1 (≈ 2.47 µM) | 1 (≈ 2.47 µM) |
| CC(=O)NC[C@@H]1OC(=O)N2c3ccc(-c4ccc(N)nc4)cc3OC[C@@H]12 | 0.5 (≈ 1.41 µM) | 0.5 (≈ 1.41 µM) | 0.5 (≈ 1.41 µM) | 0.5 (≈ 1.41 µM) | 0.5 (≈ 1.41 µM) | 16 (≈ 45.2 µM) | 4 (≈ 11.3 µM) | 2 (≈ 5.64 µM) | 2 (≈ 5.64 µM) |
| CC(=O)NC[C@@H]1OC(=O)N2c3ccc(-c4cccc([N+](=O)[O-])c4)cc3OC[C@@H]12 | 0.5 (≈ 1.3 µM) | 0.5 (≈ 1.3 µM) | 0.5 (≈ 1.3 µM) | 0.5 (≈ 1.3 µM) | 2 (≈ 5.22 µM) |  |  |  |  |
| CC(=O)NC[C@@H]1OC(=O)N2c3ccc(N4CCN(Cc5ccncc5)CC4)cc3OC[C@@H]12 | 16 (≈ 36.6 µM) | > 16 | > 16 | > 16 | > 16 |  |  |  |  |
| CC(=O)NC[C@@H]1OC(=O)N2c3ccc(-c4ccccc4)cc3OC[C@@H]12 | 0.5 (≈ 1.48 µM) | 0.5 (≈ 1.48 µM) | 1 (≈ 2.96 µM) | 0.5 (≈ 1.48 µM) | 2 (≈ 5.91 µM) |  |  |  |  |
| CC(=O)NC[C@@H]1OC(=O)N2c3ccc(N4CCN(Cc5ccc([N+](=O)[O-])o5)CC4)cc3OC[C@@H]12 | 4 (≈ 8.48 µM) | 4 (≈ 8.48 µM) | 2 (≈ 4.24 µM) | > 8 | > 16 |  |  |  |  |
| CC(=O)NC[C@@H]1OC(=O)N2c3ccc(-c4ccc(C#N)cn4)cc3OC[C@@H]12 | 2 (≈ 5.49 µM) | 1 (≈ 2.74 µM) | 1 (≈ 2.74 µM) | 2 (≈ 5.49 µM) | 2 (≈ 5.49 µM) |  |  |  |  |
| CC(=O)NC[C@@H]1OC(=O)N2c3ccc(-c4ccc(C(C)=O)cc4)cc3OC[C@@H]12 | 1 (≈ 2.63 µM) | 1 (≈ 2.63 µM) | 0.5 (≈ 1.31 µM) | 2 (≈ 5.26 µM) | 1 (≈ 2.63 µM) |  |  |  |  |
| CC(=O)NC[C@@H]1OC(=O)N2c3ccc(-c4ccc(NC(C)=O)nc4)cc3OC[C@@H]12 | 0.5 (≈ 1.26 µM) | 0.5 (≈ 1.26 µM) | 1 (≈ 2.52 µM) | 1 (≈ 2.52 µM) | 1 (≈ 2.52 µM) |  |  |  |  |
| CC(=O)NC[C@@H]1OC(=O)N2c3ccc(-c4cncc(N5CCOC5=O)c4)cc3OC[C@@H]12 | 1 (≈ 2.36 µM) | 0.5 (≈ 1.18 µM) | 0.5 (≈ 1.18 µM) | 1 (≈ 2.36 µM) | 0.5 (≈ 1.18 µM) |  |  |  |  |
| CC(=O)NC[C@@H]1OC(=O)N2c3ccc(-c4ccc(N5CCOC5=O)cn4)cc3OC[C@@H]12 | 1 (≈ 2.36 µM) | 1 (≈ 2.36 µM) | 1 (≈ 2.36 µM) | 1 (≈ 2.36 µM) | 2 (≈ 4.71 µM) |  |  |  |  |
| CC(=O)NC[C@@H]1OC(=O)N2c3ccc(-c4ccc(C(F)(F)F)nc4)cc3OC[C@@H]12 | 2 (≈ 4.91 µM) | 1 (≈ 2.45 µM) | 1 (≈ 2.45 µM) | 2 (≈ 4.91 µM) | 2 (≈ 4.91 µM) |  |  |  |  |
| CC(=O)NC[C@@H]1OC(=O)N2c3ccc(-c4ccc(N5CCNCC5)nc4)cc3OC[C@@H]12 | 0.5 (≈ 1.18 µM) | 1 (≈ 2.36 µM) | 0.5 (≈ 1.18 µM) | 1 (≈ 2.36 µM) | 0.5 (≈ 1.18 µM) |  |  |  |  |
